Experimental data taken from US5250194A, “N-dodecyl heterocyclic compounds useful as industrial microbicides and preservatives” (Buckman Laboratories International, Inc., priority 1992, dated 1993).
Converted amounts (≈) assume the structure as drawn. Where two headings read alike, the source gives them in different places.

Tests used:
Phormidium inundatum = assay: Algae growth inhibition in Difco Algae Broth; assay type: cell-based; conditions: 672 h
Method: (§1) The growth inhibiting activity of the method of the invention against the three algae Chlorella pyrenoidosa, Chlorococcum hypnosporum and Phormidium inundatum was evaluated in Difco Algae Broth, the content of which was as follows:
(§2) Forty-gram portions of the algae medium were added to 250 mL Pyrex Erlenmeyer flasks fitted with loose metal caps and then sterilized. Each of the following substances wa then added to the flasks in the order listed:
(§3) 1. Sterile algae medium as required to bring the total weight of the contents of each flask to 50 grams, after allowing for all subsequent additions specified below.
(§4) 2. A solution of the N-dodecyl heterocyclic toxicant or of a control agent to be evaluated in each test, to give the concentration desired in parts per million by weight.
(§5) 3. Chlorella pyrenoidosa, Chlorococcum hypnosporum and Phormidium inundatum in amounts sufficient to give excellent growth in the controls after 14 days. This was achieved by adding 1 milliliter of a 14 day old culture having luxuriant growth. The Chlorella pyrenoidosa culture was obtained from American Type Culture Collection No. 7516; Chlorococcum hynosporum, from the University of Texas at Austin; and Phormidium inundatum, Wisconsin No. 1093, from the University of Washington.
(§6) As a control experiment, WSCP was used as a positive control agent. WSCP is a known toxicant which kills C. pyrenoidosa at 2 ppm, C. hypnosporum at 2 ppm and P. inundatum at 10 ppm. Control experiments were also carried out where no toxicants were also employed. In the algicidal tests the growth of algae in the nutrient medium is lush green and can be seen with the naked eye. Because the minimum inhibitory concentrations of the compounds in this example are those which result in complete inhibition evaluation of the test results is not subjective.
(§7) After the inoculum of the test algae was added, the flasks were incubated at a temperature of 28° ±2° C. under fluorescent illumination of 250 foot-candle intensity (8 hours light, 16 hours darkness) for a period adequate for growth in the controls (those portions of medium which contained no toxicant). Observations of growth were made at 7-day intervals. Minimum inhibitory concentrations are those that prevented complete growth after 28 days.

Chlorococcum hypnosporum = assay: Algae growth inhibition in Difco Algae Broth; assay type: cell-based; conditions: 672 h
Method: as §1, §2, §3, §4, §5, §6, §7

Chlorella pyrenoidosa = assay: Algae growth inhibition in Difco Algae Broth; assay type: cell-based; conditions: Auxenochlorella pyrenoidosa, 672 h
Method: as §1, §2, §3, §4, §5, §6, §7

epoxidation of aldrin = conditions: rat liver; Wilkinson et al.; cited from earlier work
E. aerogenes = assay: Pulp substrate method, minimum inhibitory concentration; assay type: cell-based
From the text: The minimum inhibitory concentrations are those in which a percentage kill of at least 80% is obtained.

cholesterol biosynthesis = conditions: rat liver; Baggeley et al.; cited from earlier work
P. aeruginosa = assay: Basal salts method, minimum inhibitory concentration; assay type: cell-based; conditions: basal salts solution
Method: The preferred compounds of the present invention were tested by the pulp substrate method and basal salts method described in U.S. Pat. No. 2,881,070 at column 5, beginning at line 12 and extending to column 6, line 53. The disclosure of U.S. Pat. No. 2,881,070 is specifically incorporated by reference herein. […] The minimum inhibitory concentrations are those in which a percentage kill of at least 80% is obtained.

[1] = Firestone and Pisano; cited from earlier work
Aspergillus niger = assay: Fungal growth inhibition, minimum inhibitory concentration; assay type: cell-based; conditions: pH 6.0, completely prevented growth, read-out: Minimum inhibitory concentration against fungi
Method: The microorganism growth inhibiting activity of N-dodecyl heterocyclic compounds on the fungus Aspergillus niger was evaluated.

[2] = Barker and Hadgraft; cited from earlier work
[3] = P. inundatum, pH 7.0, 28 days, read-out: Minimum inhibitory concentration against algae
[4] = C. hypnosporum, pH 7.0, 28 days, read-out: Minimum inhibitory concentration against algae
[5] = C. pyrenoidosa, pH 7.0, 28 days, read-out: Minimum inhibitory concentration against algae
[6] = pH 7, read-out: Minimum inhibitory concentration against algae

| MIC (Aspergillus niger) | Structure (SMILES) | MIC (Phormidium inundatum; [3]) | MIC (Chlorococcum hypnosporum; [4]) | MIC (Chlorella pyrenoidosa; [5]) | inhibitor of epoxidation of aldrin (epoxidation of aldrin) | Minimum inhibitory concentration (E. aerogenes; pH 6.0, at least 80% kill) | Minimum inhibitory concentration (E. aerogenes; pH 8.0, at least 80% kill) | inhibitor of cholesterol biosynthesis (cholesterol biosynthesis) | Minimum inhibitory concentration (P. aeruginosa; pH 6.0, at least 80% kill) | Minimum inhibitory concentration (P. aeruginosa; pH 8.0, at least 80% kill) | lysosomotropic detergent, useful as anti-cancer compounds and spermicides [1] | MIC (Phormidium inundatum; [6]) | MIC (Chlorococcum hypnosporum; [6]) | MIC (Chlorella pyrenoidosa; [6]) | help the transport of anionic drugs [2] |
| --- | --- | --- | --- | --- | --- | --- | --- | --- | --- | --- | --- | --- | --- | --- | --- |
| 256 µg/mL (≈ 957 µM) | CCCCCCCCCCCCN1CCCC(C)C1 (centres unmarked) [Compound 8, N-dodecyl-3-methylpiperidine] | 10 µg/mL (≈ 37.4 µM) | 1 µg/mL (≈ 3.74 µM) | 10 µg/mL (≈ 37.4 µM) |  | 1000 | > 1000 |  |  |  |  |  |  |  |  |
| 1000 µg/mL (≈ 3740 µM) | CCCCCCCCCCCCN1CCC(C)CC1 [Compound 10, N-Dodecyl-4-methylpiperidine] | < 1 µg/mL | < 1 µg/mL | < 1 µg/mL |  | 100 | > 1000 |  |  |  |  |  |  |  |  |
| > 100 µg/mL | CCCCCCCCCCCCN1CCOCC1 [Compound 1, N-Dodecylmorpholine] |  | 1 µg/mL (≈ 3.91 µM) | 1 µg/mL (≈ 3.91 µM) |  | 25 | 25 |  | 8 | 40 | lysosomotropic detergents |  |  |  | help the transport of anionic drugs |
| 128 µg/mL (≈ 451 µM) | CCCCCCCCCCCCN1CC(C)OC(C)C1 (centres unmarked) [Compound 3, N-dodecyl-2,6-dimethylmorpholine] | 1000 µg/mL (≈ 3530 µM) | < 1 µg/mL | 10 µg/mL (≈ 35.3 µM) |  | 1000 | 1000 |  |  |  |  |  |  |  |  |

The remaining lines, values behind:

| Structure (SMILES) | MIC (Aspergillus niger) | MIC (Phormidium inundatum; [3]) | MIC (Chlorococcum hypnosporum; [4]) | MIC (Chlorella pyrenoidosa; [5]) | inhibitor of epoxidation of aldrin (epoxidation of aldrin) | Minimum inhibitory concentration (E. aerogenes; pH 6.0, at least 80% kill) | Minimum inhibitory concentration (E. aerogenes; pH 8.0, at least 80% kill) | inhibitor of cholesterol biosynthesis (cholesterol biosynthesis) | Minimum inhibitory concentration (P. aeruginosa; pH 6.0, at least 80% kill) | Minimum inhibitory concentration (P. aeruginosa; pH 8.0, at least 80% kill) | lysosomotropic detergent, useful as anti-cancer compounds and spermicides [1] | MIC (Phormidium inundatum; [6]) | MIC (Chlorococcum hypnosporum; [6]) | MIC (Chlorella pyrenoidosa; [6]) | help the transport of anionic drugs [2] |
| --- | --- | --- | --- | --- | --- | --- | --- | --- | --- | --- | --- | --- | --- | --- | --- |
| CCCCCCCCCCCCn1ccnc1 [Compound 2, N-Dodecylimidazole] | 32 µg/mL (≈ 135 µM) | 2 µg/mL (≈ 8.46 µM) | 0.7 µg/mL (≈ 2.96 µM) | 0.5 µg/mL (≈ 2.12 µM) | inhibitor of epoxidation of aldrin of rat liver | 1000 | > 1000 | inhibitor of cholesterol biosynthesis in rat liver | 4 | 10 | lysosomotropic detergents |  |  |  |  |
| CCCCCCCCCCCCN1CC(CCl)OC1=O (centres unmarked) [Compound 4, N-dodecyl-5-chloromethyl-2-oxazolidinone] | > 512 µg/mL | 100 µg/mL (≈ 329 µM) | 100 µg/mL (≈ 329 µM) | 100 µg/mL (≈ 329 µM) |  | 1000 | 1000 |  |  |  |  |  |  |  |  |
| CCCCCCCCCCCCN1CCCC1 [Compound 7, N-Dodecylpyrrolidine] | 128 µg/mL (≈ 535 µM) |  |  |  |  | 1000 | > 1000 |  |  |  |  | 1 µg/mL (≈ 4.18 µM) | 1 µg/mL (≈ 4.18 µM) | 1 µg/mL (≈ 4.18 µM) |  |
| CCCCCCCCCCCCN1CCCCCC1 [Compound 6, N-Dodecylhexamethyleneimine] | 256 µg/mL (≈ 957 µM) |  |  |  |  | > 1000 | 1000 |  |  |  |  | 10 µg/mL (≈ 37.4 µM) | 1 µg/mL (≈ 3.74 µM) | 1 µg/mL (≈ 3.74 µM) |  |
| CCCCCCCCCCCCN1CCCCC1 [Compound 9, N-Dodecylpiperidine] | 32 µg/mL (≈ 126 µM) |  |  |  |  | 1000 | 1000 |  |  |  |  | 10 µg/mL (≈ 39.5 µM) | 1 µg/mL (≈ 3.95 µM) | 1 µg/mL (≈ 3.95 µM) |  |
| CCCCCCCCCCCCN1CCCC1=O [Compound 5, N-Dodecyl-2-pyrrolidinone] | 32 µg/mL (≈ 126 µM) | 10 µg/mL (≈ 39.5 µM) | 10 µg/mL (≈ 39.5 µM) | 10 µg/mL (≈ 39.5 µM) |  | 1000 | 1000 |  |  |  |  |  |  |  |  |
| CCCCCCCCCCCCN1CCCCC1C (centres unmarked) [Compound 11, N-Dodecyl-2-methylpiperidine] | 1000 µg/mL (≈ 3740 µM) |  |  |  |  | 100 | > 1000 |  |  |  |  | 5 µg/mL (≈ 18.7 µM) | < 1 µg/mL | < 1 µg/mL |  |
